Measured values as given in article PMC7383509 (Clinical Pharmacology in Drug Development, 2019).
Where “and” joins values, the source holds several entries; their conditions need not be identical. Equal entries are not always repeated. Where two headings read alike, the source gives them in different places.

Key:
[1] = cited from earlier work
[2] = system: μ receptor; conditions: major metabolites of oliceridine; ref data on file; cited from earlier work
[3] = human plasma; cited from earlier work
[4] = Hepatic impairment study: safety and tolerability; type: in vivo, human
[5] = type: in vivo, human; conditions: for AUC / clearance / Cmax / Vd / half-life: 0.5 mg, single 0.5 mg IV; for AUC: AUC0‐t; for AUC / Cmax: dose-normalized to 1 mg; for clearance: CL; for Vd: Vz; for half-life: t½
[6] = type: in vivo, human; conditions: for Tmax / AUC / clearance / Cmax / Vd / half-life: human, plasma, iv; for AUC: AUC0‐t; for AUC / clearance / Cmax / Vd / half-life: ESRD subjects, single 0.5 mg IV; for AUC / Cmax: dose-normalized to 1 mg; for clearance: CL; for Vd: Vz; for half-life: t½
[7] = Renal impairment study: safety and tolerability; type: in vivo, human
[8] = mild hepatic impairment, 0.5 mg IV, 10 subjects
[9] = moderate hepatic impairment, 0.5 mg IV, 10 subjects
[10] = severe hepatic impairment, 0.5 mg IV, 6 subjects
[11] = human, plasma, iv, arithmetic mean ± SD, mild hepatic impairment
[12] = human, plasma, iv, arithmetic mean ± SD, moderate hepatic impairment
[13] = human, plasma, iv, arithmetic mean ± SD, severe hepatic impairment
[14] = human, plasma, iv, geometric mean (%CVb), severe hepatic impairment
[15] = human, plasma, iv, geometric mean (%CVb), mild hepatic impairment
[16] = human, plasma, iv, geometric mean (%CVb), moderate hepatic impairment
[17] = ESRD subjects/healthy subjects, ANCOVA
[18] = ESRD subjects/healthy subjects, ANCOVA, dose-adjusted

Compound: NCC[C@@]1(c2ccccn2)CCOC2(CCCC2)C1 [TRV0109662]
- Share of total by AUC ([1]; major metabolite of oliceridine): ≥ 10%
- Share of total drug‐related material ([1]; major metabolite of oliceridine, ref data on file): 17%
- Activity at the μ receptor [2]: inactive

Compound: COc1ccsc1CNCC[C@@]1(c2ccccn2)CCOC2(CCCC2)C1 [Oliceridine]
- Free fraction [3]: 23%
- At least 1 TEAE, no. of events ([4]; healthy, 1 mg IV, 8 subjects): 0 no. of events
- Somnolence, no. of events ([4]; healthy, 1 mg IV, 8 subjects): 0 no. of events
- Somnolence, subjects ([4]; healthy, 1 mg IV, 8 subjects): 0 (0%) n (%)
- Subjects with TEAEs by maximum severity: Mild ([4]; healthy, 1 mg IV, 8 subjects): 0 (0%) n (%)
- Subjects with TEAEs by maximum severity: Moderate ([4]; healthy, 1 mg IV, 8 subjects): 0
- Subjects with TEAEs by maximum severity: Severe ([4]; healthy, 1 mg IV, 8 subjects): 0
- Subjects with at least 1 TEAE ([4]; healthy, 1 mg IV, 8 subjects): 0 (0%) n (%)
- TEAEs by maximum severity: Mild, no. of events ([4]; healthy, 1 mg IV, 8 subjects): 0 no. of events
- Duration of somnolence TEAEs ([4]; mild hepatic impairment group, mild intensity, resolved completely): approximately 1 hour
- At least 1 TEAE, no. of events [4, 8]: 2 no. of events
- Somnolence, no. of events [4, 8]: 2 no. of events
- Somnolence, subjects [4, 8]: 2 n (%) and 2 (20%) n (%)
- Subjects with TEAEs by maximum severity: Mild [4, 8]: 2 (20%) n (%)
- Subjects with TEAEs by maximum severity: Moderate [4, 8]: 0
- Subjects with TEAEs by maximum severity: Severe [4, 8]: 0
- Subjects with at least 1 TEAE [4, 8]: 2 (20%) n (%)
- TEAEs by maximum severity: Mild, no. of events [4, 8]: 2 no. of events
- At least 1 TEAE, no. of events [4, 9]: 0 no. of events
- Somnolence, no. of events [4, 9]: 0 no. of events
- Somnolence, subjects [4, 9]: 0 (0%) n (%)
- Subjects with TEAEs by maximum severity: Mild [4, 9]: 0 (0%) n (%)
- Subjects with TEAEs by maximum severity: Moderate [4, 9]: 0
- Subjects with TEAEs by maximum severity: Severe [4, 9]: 0
- Subjects with at least 1 TEAE [4, 9]: 0 (0%) n (%)
- TEAEs by maximum severity: Mild, no. of events [4, 9]: 0 no. of events
- At least 1 TEAE, no. of events [4, 10]: 0 no. of events
- Somnolence, no. of events [4, 10]: 0 no. of events
- Somnolence, subjects [4, 10]: 0 (0%) n (%)
- Subjects with TEAEs by maximum severity: Mild [4, 10]: 0 (0%) n (%)
- Subjects with TEAEs by maximum severity: Moderate [4, 10]: 0
- Subjects with TEAEs by maximum severity: Severe [4, 10]: 0
- Subjects with at least 1 TEAE [4, 10]: 0 (0%) n (%)
- TEAEs by maximum severity: Mild, no. of events [4, 10]: 0 no. of events
- Share of the metabolites eliminated in the urine ([1]; remainder eliminated in the feces): Approximately 70%
- CL, GM ratio Mild:Healthy (90%CI) ([5]; ANOVA): 1.05 (0.77, 1.43)
- CL, GM ratio Moderate:Healthy (90%CI) ([5]; ANOVA): 0.80 (0.59, 1.09)
- CL, GM ratio Severe:Healthy (90%CI) ([5]; ANOVA): 0.99 (0.71, 1.38)
- t½, GM ratio Mild:Healthy (90%CI) ([5]; ANOVA): 1.26 (0.96, 1.66)
- t½, GM ratio Moderate:Healthy (90%CI) ([5]; ANOVA): 2.09 (1.59, 2.75)
- AUC0‐t, GM ratio Mild:Healthy (90%CI) ([5]; dose-normalized, ANOVA): 0.93 (0.68, 1.28)
- AUC0‐∞, GM ratio Mild:Healthy (90%CI) ([5]; dose-normalized, ANOVA): 0.95 (0.70, 1.29)
- AUC0‐∞, GM ratio Moderate:Healthy (90%CI) ([5]; dose-normalized, ANOVA): 1.25 (0.92, 1.70)
- AUC0‐∞, GM ratio Severe:Healthy (90%CI) ([5]; dose-normalized, ANOVA): 1.01 (0.72, 1.41)
- Cmax, GM ratio Mild:Healthy (90%CI) ([5]; dose-normalized, ANOVA): 1.19 (0.54, 2.60)
- Cmax, GM ratio Moderate:Healthy (90%CI) ([5]; dose-normalized, ANOVA): 1.20 (0.55, 2.62)
- Cmax, GM ratio Severe:Healthy (90%CI) ([5]; dose-normalized, ANOVA): 0.24 (0.10, 0.56)
- AUC [5, 11]: 23.3 ± 7.9 ng·h/mL
- AUC [5, 12]: 29.9 ± 11.3 ng·h/mL
- AUC [5, 13]: 23.4 ± 10.3 ng·h/mL
- AUC [5, 14]: 21.8 ng·h/mL
- clearance [5, 11]: 807 mL/min
- clearance [5, 12]: 595 mL/min
- clearance [5, 13]: 738 mL/min
- clearance [5, 15]: 742 mL/min
- clearance [5, 16]: 565 mL/min
- clearance [5, 14]: 697 mL/min
- Cmax [5, 11]: 62.3 ± 48.8 ng/mL
- Cmax [5, 12]: 46.6 ± 19.4 ng/mL
- Cmax [5, 13]: 11.9 ± 10.6 ng/mL
- Cmax [5, 15]: 41.4 ng/mL
- Cmax [5, 16]: 41.9 ng/mL
- Cmax [5, 14]: 8.4 ng/mL
- Vd [5, 11]: 181 ± 81.2 L
- Vd [5, 12]: 215 ± 39.1 L
- Vd [5, 13]: 370 ± 130 L
- Vd [5, 15]: 167 L
- Vd [5, 16]: 212 L
- Vd [5, 14]: 348 L
- half-life [5, 11]: 2.7 ± 0.53 h
- half-life [5, 12]: 4.7 ± 2.1 h
- half-life [5, 13]: 6.3 ± 2.6 h
- half-life [5, 15]: 2.6 h
- half-life [5, 16]: 4.3 h
- half-life [5, 14]: 5.8 h
- AUC(0-t) ([5]; human, plasma, iv, 1 mg): 24.1 ± 7.5 ng·h/mL
- CL, ratio of geometric means [6, 17]: 81.2
- t½, ratio of geometric means [6, 17]: 128
- AUC0‐t, ratio of geometric means [6, 18]: 108
- AUC0‐∞, ratio of geometric means [6, 18]: 123
- Cmax, ratio of geometric means [6, 18]: 113
- Tmax ([6]; 0.5 mg): 0.25 h
- AUC ([6]; 0.5 mg, arithmetic mean (SD)): 19.7 ng·h/mL
- AUC ([6]; 0.5 mg, geometric mean (%CVb)): 19.1 ng·h/mL
- clearance ([6]; 0.5 mg, arithmetic mean (SD)): 847 mL/min
- clearance ([6]; 0.5 mg, geometric mean (%CVb)): 820 mL/min
- Cmax ([6]; 0.5 mg, arithmetic mean (SD)): 9.96 ng/mL
- Cmax ([6]; 0.5 mg, geometric mean (%CVb)): 9.87 ng/mL
- Vd ([6]; 0.5 mg, arithmetic mean (SD)): 219 L
- Vd ([6]; 0.5 mg, geometric mean (%CVb)): 212 L
- half-life ([6]; 0.5 mg, arithmetic mean (SD)): 3.11 h
- half-life ([6]; 0.5 mg, geometric mean (%CVb)): 2.99 h
- Tmax ([6]; 1 mg): 0.25 h
- At least 1 TEAE, no. of events ([7]; ESRD, 0.5 mg IV, 9 subjects): 2 no. of events
- Dizziness, subjects ([7]; ESRD, 0.5 mg IV, 9 subjects): 0
- Euphoria, subjects ([7]; ESRD, 0.5 mg IV, 9 subjects): 0
- Fatigue, no. of events ([7]; ESRD, 0.5 mg IV, 9 subjects): 1 no. of events
- Fatigue, subjects ([7]; ESRD, 0.5 mg IV, 9 subjects): 1 (11%) n (%)
- Feeling of relaxation, subjects ([7]; ESRD, 0.5 mg IV, 9 subjects): 0
- Headache, subjects ([7]; ESRD, 0.5 mg IV, 9 subjects): 0
- Nausea, no. of events ([7]; ESRD, 0.5 mg IV, 9 subjects): 1 no. of events
- Nausea, subjects ([7]; ESRD, 0.5 mg IV, 9 subjects): 1 (11%) n (%)
- Pain in extremity, subjects ([7]; ESRD, 0.5 mg IV, 9 subjects): 0
- Subjects with TEAEs by maximum severity: Mild ([7]; ESRD, 0.5 mg IV, 9 subjects): 2 (22%) n (%)
- Subjects with TEAEs by maximum severity: Moderate ([7]; ESRD, 0.5 mg IV, 9 subjects): 0
- Subjects with TEAEs by maximum severity: Severe ([7]; ESRD, 0.5 mg IV, 9 subjects): 0
- Subjects with at least 1 TEAE ([7]; ESRD, 0.5 mg IV, 9 subjects): 2 (22%) n (%)
- TEAEs by maximum severity: Mild, no. of events ([7]; ESRD, 0.5 mg IV, 9 subjects): 2 no. of events
- Total number of mild TEAEs, overall ([7]; all 17 subjects of the renal study): 11
- Subjects who experienced TEAEs, overall ([7]; all subjects of the renal study (6 of 17)): 35.3%
- Dizziness, no. of events ([7]; healthy, 1 mg IV, 8 subjects): 1 no. of events
- Dizziness, subjects ([7]; healthy, 1 mg IV, 8 subjects): 1 (12.5%) n (%)
- Euphoria, no. of events ([7]; healthy, 1 mg IV, 8 subjects): 2 no. of events
- Euphoria, subjects ([7]; healthy, 1 mg IV, 8 subjects): 2 (25%) n (%)
- Fatigue, no. of events ([7]; healthy, 1 mg IV, 8 subjects): 2 no. of events
- Fatigue, subjects ([7]; healthy, 1 mg IV, 8 subjects): 2 (25%) n (%)
- Feeling of relaxation, no. of events ([7]; healthy, 1 mg IV, 8 subjects): 1 no. of events
- Feeling of relaxation, subjects ([7]; healthy, 1 mg IV, 8 subjects): 1 (12.5%) n (%)
- Headache, no. of events ([7]; healthy, 1 mg IV, 8 subjects): 1 no. of events
- Headache, subjects ([7]; healthy, 1 mg IV, 8 subjects): 1 (12.5%) n (%)
- Nausea, no. of events ([7]; healthy, 1 mg IV, 8 subjects): 3 no. of events
- Nausea, subjects ([7]; healthy, 1 mg IV, 8 subjects): 2 (25%) n (%)
- Pain in extremity, no. of events ([7]; healthy, 1 mg IV, 8 subjects): 1 no. of events
- Pain in extremity, subjects ([7]; healthy, 1 mg IV, 8 subjects): 1 (12.5%) n (%)
- Subjects with TEAEs by maximum severity: Mild ([7]; healthy, 1 mg IV, 8 subjects): 4 (50%) n (%)
- Subjects with TEAEs by maximum severity: Moderate ([7]; healthy, 1 mg IV, 8 subjects): 0
- Subjects with TEAEs by maximum severity: Severe ([7]; healthy, 1 mg IV, 8 subjects): 0
- TEAEs by maximum severity: Mild, no. of events ([7]; healthy, 1 mg IV, 8 subjects): 9 no. of events
